Reference: US9296720B2, “Carboxamide-substituted heteroaryl-pyrazoles and the use thereof” (AiCuris GmbH & Co. KG, priority 2011, dated 2016)
Like-named read-outs stand apart in the source and are kept apart here.

Key:
Type in all cases: cell-based
HIV-1NL4-3 Wild Type = test: Luminescence reduction assay, MT4 cells infected with HIV-1NL4-3 luciferase reporter virus, wild type; conditions: 2% FCS
Method in brief: (§1)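 MT4 cells pellet-infected 2 h at 37° C with HIV-1NL4-3 reporter virus (lu164 replacing nef; wild type or site-directed RT mutants), washed, then incubated with compound dilutions (1% DMSO, 2% or 10% FCS) for 5 days. Secreted luciferase read with coelenterazine buffer; EC50 = concentration halving RLU versus untreated infected cells.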

HIV-1NL4-3 K103N-Y181C = test: Luminescence reduction assay, MT4 cells infected with HIV-1NL4-3 luciferase reporter virus, RT mutant K103N-Y181C
Method in brief: as §1

HIV-1LAI Wild Type = test: AlamarBlue viability assay, HIV-1LAI-infected MT4 cells; conditions: 10% FCS
Method in brief: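 MT4 cells infected with HIV-1LAI (MOI 0.01, supernatant infection) cultured 5 days at 37 °C with compounds in RPMI with 2% or 10% FCS, 1% DMSO final. AlamarBlue fluorescence after 3 h; EC50 as 50% protection relative to uninfected cells, CC50 from high-concentration cytotoxicity.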

[1] = Human immunodeficiency virus 1, MT4, MT4 cells
[2] = Human immunodeficiency virus 1, MT4, read-out: EC50 (μM) MT4 Cells HIV-1NL4-3 K103N-Y181C 2% FCS, MT4 cells, HIV-1NL4-3 K103N-Y181C, 2% FCS
[3] = read-out: EC50 (μM) MT4 Cells HIV-1NL4-3 K103N-Y181C 2% FCS, MT4 cells, HIV-1NL4-3 K103N-Y181C, 2% FCS

Structure (SMILES) | EC50 (HIV-1NL4-3 Wild Type; [1]) [µM] | EC50 (HIV-1NL4-3 K103N-Y181C; [2]) [µM] | EC50 (HIV-1LAI Wild Type; [1]) [µM] | EC50 (HIV-1NL4-3 Wild Type; MT4 cells) [µM] | EC50 (HIV-1NL4-3 K103N-Y181C; [3]) [µM] | EC50 (HIV-1LAI Wild Type; MT4 cells) [µM]
O=C(c1cc(-c2cc(Br)cc(OC(F)(F)F)c2)n(-c2ccc(F)nc2)n1)N1CCSC1 [Example 41, {5-[3-Bromo-5-(trifluoromethoxy)phenyl]-1-(6-fluoropyridin-3-yl)-1H-pyrazol-3-yl}(1,3-thiazolidin-3-yl)methanone] | 0.042 | 0.087 | 0.991 |  |  | 
O=C1CN(C(=O)c2cc(-c3cc(Br)cc(OC(F)(F)F)c3)n(-c3ccnc(Cl)c3)n2)CN1 [Example 48, 1-({5-[3-Bromo-5-(trifluoromethoxy)phenyl]-1-(2-chloropyridin-4-yl)-1H-pyrazol-3-yl}carbonyl)imidazolidin-4-one] | 0.01 | 0.007 | 0.111 |  |  | 
COc1cc(-n2nc(C(=O)N3CNC(=O)C3)cc2-c2cc(F)cc(Cl)c2)ccn1 [Example 25, 1-{[5-(3-Chloro-5-fluorophenyl)-1-(2-methoxypyridin-4-yl)-1H-pyrazol-3-yl]carbonyl}imidazolidin-4-one] | 0.004 | 0.04 | 0.011 |  |  | 
O=C1CN(C(=O)c2cc(-c3cc(F)cc(OC(F)F)c3)n(-c3cccnc3)n2)CCN1 [Example 67] | 0.051 | 0.721 | 0.641 |  |  | 
O=C1CN(C(=O)c2cc(-c3cc(F)cc(OC(F)F)c3)n(-c3cccnc3)n2)CN1 [Example 66, 1-({5-[3-(Difluoromethoxy)-5-fluorophenyl]-1-(pyridin-3-yl)-1H-pyrazol-3-yl}carbonyl)imidazolidin-4-one] | 0.013 | 0.058 | 0.083 |  |  | 
Cc1cc(-n2nc(C(=O)N3CC[S+]([O-])C3)cc2-c2cc(F)cc(Cl)c2)ccn1 (stereo not drawn) [Example 24, [5-(3-Chloro-5-fluorophenyl)-1-(2-methylpyridin-4-yl)-1H-pyrazol-3-yl](1-oxido-1,3-thiazolidin-3-yl)methanone] | 0.066 | > 3.3 | 0.668 |  |  | 
Cc1cc(-n2nc(C(=O)N3CCNC(=O)C3)cc2-c2cc(Br)cc(OC(F)(F)F)c2)ccn1 [Example 54, 4-({5-[3-Bromo-5-(trifluoromethoxy)phenyl]-1-(2-methylpyridin-4-yl)-1H-pyrazol-3-yl}carbonyl)piperazin-2-one] | 0.323 | 0.387 | 1.68 |  |  | 
O=C(c1cc(-c2cc(Br)cc(OC(F)(F)F)c2)n(-c2ccc(Cl)nc2)n1)N1CCSC1 [Example 36, {5-[3-Bromo-5-(trifluoromethoxy)phenyl]-1-(6-chloropyridin-3-yl)-1H-pyrazol-3-yl}(1,3-thiazolidin-3-yl)methanone] | 0.149 | 0.08 | 2.37 |  |  | 
COc1cc(Br)cc(-c2cc(C(=O)N3CNC(=O)C3)nn2-c2ccnc(Cl)c2)c1 [Example 96, 1-{[5-(3-Bromo-5-methoxyphenyl)-1-(2-chloropyridin-4-yl)-1H-pyrazol-3-yl]carbonyl}imidazolidin-4-one] | 0.004 | 0.02 | 0.016 |  |  | 
O=C1CN(C(=O)c2cc(-c3cnc(F)c(Cl)c3)n(-c3ccc(F)c(Cl)c3)n2)CN1 [Example 111, 1-{[1-(3-Chloro-4-fluorophenyl)-5-(5-chloro-6-fluoropyridin-3-yl)-1H-pyrazol-3-yl]carbonyl}imidazolidin-4-one] | 0.03 | 0.173 | 0.024 |  |  | 
O=C1CN(C(=O)c2cc(-c3cc(Br)cc(OC(F)(F)F)c3)n(-c3cccc(Cl)n3)n2)CN1 [Example 27, 1-({5-[3-Bromo-5-(trifluoromethoxy)phenyl]-(6-chloropyridin-2-yl)-1H-pyrazol-3-yl}carbonyl)imidazolidin-4-one] | 0.098 | 0.114 | > 3.3 |  |  | 
COc1cc(-n2nc(C(=O)N3CNC(=O)C3)cc2-c2cc(Br)cc(OC(F)(F)F)c2)ccn1 [Example 55, 1-({5-[3-Bromo-5-(trifluoromethoxy)phenyl]-1-(2-methoxypyridin-4-yl)-1H-pyrazol-3-yl}carbonyl)imidazolidin-4-one] | 0.003 | 0.01 | 0.104 |  |  | 
O=C(c1cc(-c2cc(Br)cc(OC(F)(F)F)c2)n(-c2cccnc2)n1)N1CC[S+]([O-])C1 (racemic) [Example 31-2, {5-[3-Bromo-5-(trifluoromethoxy)phenyl]-1-(pyridin-3-yl)-1H-pyrazol-3-yl}(1-oxido-1,3-thiazolidin-3-yl)methanone] |  |  |  | 0.01 | 0.041 | 0.336
O=C1CN(C(=O)c2cc(-c3cc(F)cc(Br)c3)n(-c3ccnc(Cl)c3)n2)CN1 [Example 92, 1-{[5-(3-Bromo-5-fluorophenyl)-1-(2-chloropyridin-4-yl)-1H-pyrazol-3-yl]carbonyl}imidazolidin-4-one] | 0.005 | 0.033 | 0.026 |  |  | 
O=C1CN(C(=O)c2cc(-c3cc(F)cc(OC(F)F)c3)n(-c3ccnc(Cl)c3)n2)CN1 [Example 68, 1-({1-(2-Chloropyridin-4-yl)-5-[3-(difluoromethoxy)-5-fluorophenyl]-1H-pyrazol-3-yl}carbonyl)imidazolidin-4-one] | 0.062 | 0.193 | 0.326 |  |  | 
O=C1CN(C(=O)c2cc(-c3cc(F)cc(OC(F)(F)F)c3)n(-c3ccnc(Cl)c3)n2)CN1 [Example 62, 1-({1-(2-Chloropyridin-4-yl)-5-[3-fluoro-5-(trifluoromethoxy)phenyl]-1H-pyrazol-3-yl}carbonyl)imidazolidin-4-one] | 0.044 | 0.066 | 0.352 |  |  | 
O=C1CN(C(=O)c2cc(-c3cc(F)cc(Cl)c3)n(-c3ccc(Cl)nc3)n2)CN1 [Example 7, 1-{[5-(3-Chloro-5-fluorophenyl)-1-(6-chloropyridin-3-yl)-1H-pyrazol-3-yl]carbonyl}imidazolidin-4-one] | 0.01 | 0.018 | 0.064 |  |  | 
Nc1ccc(-n2nc(C(=O)N3CNC(=O)C3)cc2-c2cc(F)cc(Cl)c2)cn1 [Example 12, 1-{[1-(6-Aminopyridin-3-yl)-5-(3-chloro-5-fluorophenyl)-1H-pyrazol-3-yl]carbonyl}imidazolidin-4-one] | 0.189 | 0.377 | 1.79 |  |  | 
O=C(c1cc(-c2cc(F)cc(OC(F)(F)F)c2)n(-c2cccnc2)n1)N1CCOCC1 [Example 61, {5-[3-Fluoro-5-(trifluoromethoxy)phenyl]-1-(pyridin-3-yl)-1H-pyrazol-3-yl}(morpholin-4-yl)methanone] | 0.092 | 0.767 | 0.6 |  |  | 
O=C1CN(C(=O)c2cc(-c3cc(F)cc(Cl)c3)n(-c3ccncc3)n2)CN1 [Example 13, 1-{[5-(3-Chloro-5-fluorophenyl)-1-(pyridin-4-yl)-1H-pyrazol-3-yl]carbonyl}imidazolidin-4-one] | 0.323 | 0.88 | 1.34 |  |  | 
O=C(c1cc(-c2cc(Br)cc(OC(F)(F)F)c2)n(-c2ccc(Cl)nc2)n1)N1CCS(=O)(=O)C1 [Example 38, {5-[3-Bromo-5-(trifluoromethoxy)phenyl]-1-(6-chloropyridin-3-yl)-1H-pyrazol-3-yl}(1,1-dioxido-1,3-thiazolidin-3-yl)methanone] | 0.023 | 0.007 | 1.22 |  |  | 
O=C(c1cc(-c2cc(F)cc(Cl)c2)n(-c2ccnc(C(F)(F)F)c2)n1)N1CCS(=O)(=O)C1 [Example 20, {5-(3-Chloro-5-fluorophenyl)-1-[2-(trifluoromethyl)pyridin-4-yl]-1H-pyrazol-3-yl}(1,1-dioxido-1,3-thiazolidin-3-yl)methanone] | 0.162 | 1.39 | 1.46 |  |  | 
O=C(c1cc(-c2cc(F)cc(Cl)c2)n(-c2cccnc2)n1)N1CC[S+]([O-])C1 (racemic) [Example 6-2, [5-(3-Chloro-5-fluorophenyl)-1-(pyridin-3-yl)-1H-pyrazol-3-yl](1-oxido-1,3-thiazolidin-3-yl)methanone] |  |  |  | 0.007 | 0.986 | 0.112
COc1cc(OC(F)(F)F)cc(-c2cc(C(=O)N3CNC(=O)C3)nn2-c2cccnc2)c1 [Example 84, 1-({5-[3-Methoxy-5-(trifluoromethoxy)phenyl]-1-(pyridin-3-yl)-1H-pyrazol-3-yl}carbonyl)imidazolidin-4-one] | 0.01 | 0.008 | 0.048 |  |  | 
O=C1CN(C(=O)c2cc(-c3cc(F)cc(OCC(F)(F)F)c3)n(-c3cccnc3)n2)CCN1 [Example 71, 4-({5-[3-Fluoro-5-(2,2,2-trifluoroethoxy)phenyl]-1-(pyridin-3-yl)-1H-pyrazol-3-yl}carbonyl)piperazin-2-one] | 0.013 | > 3.3 | 0.246 |  |  | 
O=C1CN(C(=O)c2cc(-c3cc(Br)cc(OC(F)(F)F)c3)n(-c3ccnc(C(F)(F)F)c3)n2)CCN1 [Example 116, 4-({5-[3-Bromo-5-(trifluoromethoxy)phenyl]-1-[2-(trifluoromethyl)pyridin-4-yl]-1H-pyrazol-3-yl}carbonyl)piperazin-2-one] | 0.648 | 0.896 | > 3.3 |  |  | 
